Like-named read-outs stand apart in the source and are kept apart here. Some results are limits rather than exact numbers.

Our source for the IC50 values is US6841682B2, “Heterocycles useful in the treatment of benign prostatic hyperplasia” (Janseen Pharmaceutica N.V., priority 1997, dated 2005).

One assay deals with T1, α1c (Homo sapiens, UniProt P25100).
T1 construct: expressed in transfected cells
T1 sequence (P25100 1-572): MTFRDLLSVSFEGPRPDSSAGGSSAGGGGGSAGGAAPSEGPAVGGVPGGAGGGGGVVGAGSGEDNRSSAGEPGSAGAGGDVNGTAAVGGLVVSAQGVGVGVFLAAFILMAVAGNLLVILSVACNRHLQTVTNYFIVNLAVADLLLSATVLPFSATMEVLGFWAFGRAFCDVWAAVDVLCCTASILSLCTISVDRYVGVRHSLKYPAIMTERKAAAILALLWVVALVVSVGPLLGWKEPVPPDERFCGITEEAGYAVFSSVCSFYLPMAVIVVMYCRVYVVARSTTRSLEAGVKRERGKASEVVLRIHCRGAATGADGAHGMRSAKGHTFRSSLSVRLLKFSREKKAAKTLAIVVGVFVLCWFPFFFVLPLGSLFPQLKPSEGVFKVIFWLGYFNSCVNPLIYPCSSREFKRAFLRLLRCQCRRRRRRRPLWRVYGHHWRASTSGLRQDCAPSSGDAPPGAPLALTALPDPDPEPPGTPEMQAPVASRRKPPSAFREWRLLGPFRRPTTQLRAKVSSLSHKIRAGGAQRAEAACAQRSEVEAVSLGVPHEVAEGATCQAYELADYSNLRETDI
Briefly: α1c screen (as named in the preparative examples). It counts as binding. The conditions noted are these: stated in the preparative example. The text has this:
(§1) The first assay tested the ability of compounds of Formula I to bind to membrane bound receptors α1a-AR, α1b-AR and α1d-AR.
(§2) The DNA sequences of the three cloned human α1-AR subtypes have been published. […] We used published DNA sequence information to design-primers for use in RT-PCR amplification of each subtype to obtain cloned cDNAs. Human poly A+ RNA was obtained from commercially available sources and included hippocampus and prostate samples, sources which have been cited in the literature. For the primary screen a radio ligand binding assay was used which employed membrane preparations from cells expressing the individual cloned receptor cDNAs. Radiolabeled ligands with binding activity on all three subtypes (non-selective) are commercially available ([125I]-HEAT, [3H]-prazosin).
(§3) Each α1 receptor subtype was cloned from poly A+ RNA by the standard method of reverse transcription-polymerase chain reaction (RT-PCR). The following sources of polyA+ RNA were used for the cloning of the al receptor subtypes: α1a-AR, human hippocampus and prostate, α1b-AR, human hippocampus, α1d-AR, human hippocampus. The resulting cDNAs were cloned into the pcDNA3 mammalian expression vector (Invitrogen Corp., San Diego Calif.). Each DNA was sequenced for verification and to detect any possible mutations introduced during the amplification process. Any deviation in sequence from the published consensus for each receptor subtype was corrected by site-directed mutagenesis.
(§4) The three α1-AR subtypes (a, b, d) were transfected into COS cells using a standard DEAE-dextran procedure with a chloroquine shock. In this procedure, each tissue culture dish (100 mm) was inoculated with 3.5×10^6 cells and transfected with 10 μg of DNA. Approximately 72 hours post-transfection, the cells were harvested and COS membranes were prepared. Transfected COS cells from 25 plates (100 mm) were scraped and suspended in 15 mL of TE buffer (50 mM Tris-HCl, 5 mM EDTA, pH7.4). The suspension was disrupted with a homogenizer. It was then centrifuged at 1000×g for 10 minutes at 4° C. The supernatant was centrifuged at 34,500×g for 20 minutes at 4° C. The pellet was resuspended in 5 mL TNE buffer (50 mM Tris-HCl, 5 mM EDTA, 150 mM NaCl, pH7.4). The resulting membrane preparation was aliquoted and stored at −70° C. The protein concentration was determined following membrane solubilization with TritonX-100.
The ability of each compound to bind to each of the α1-AR subtypes was assessed in a receptor binding assay. [125I]-HEAT, a non-selective α1-AR ligand, was used as the radiolabeled ligand. […] Scintillation fluid (25 mL) was added to each well, and the filter plate was counted in a Packard Topcount scintillation counter. Data was analyzed using GraphPad Prism software.

Another assay concerns the target T2, α1b-AR (Homo sapiens, UniProt P35368).
T2 construct: expressed in transfected cells; host or cells: COS cells (pcDNA3 vector, DEAE-dextran transient transfection); membrane preparation
T2 sequence (P35368 1-520): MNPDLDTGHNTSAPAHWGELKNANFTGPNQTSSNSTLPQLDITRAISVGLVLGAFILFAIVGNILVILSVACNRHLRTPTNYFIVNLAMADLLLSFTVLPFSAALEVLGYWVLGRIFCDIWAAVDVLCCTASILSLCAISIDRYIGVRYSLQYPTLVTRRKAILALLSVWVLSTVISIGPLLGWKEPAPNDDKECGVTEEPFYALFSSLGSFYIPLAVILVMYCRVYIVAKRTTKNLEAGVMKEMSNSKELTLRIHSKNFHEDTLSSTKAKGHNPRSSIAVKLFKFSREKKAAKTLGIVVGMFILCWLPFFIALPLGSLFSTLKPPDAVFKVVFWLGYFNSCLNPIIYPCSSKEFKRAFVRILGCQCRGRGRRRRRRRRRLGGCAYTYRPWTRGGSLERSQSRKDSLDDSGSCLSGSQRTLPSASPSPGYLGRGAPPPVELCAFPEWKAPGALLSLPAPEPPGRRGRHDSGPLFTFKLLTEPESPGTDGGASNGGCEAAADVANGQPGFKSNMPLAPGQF
In words: radioligand ([125I]-HEAT) receptor binding assay, COS cell membranes, α1b-AR.
Source text: as §1, §2, §3, §4
(§5) The ability of each compound to bind to each of the α1-AR subtypes was assessed in a receptor binding assay. [125I]-HEAT, a non-selective α1-AR ligand, was used as the radiolabeled ligand. Each well of a 96-well plate received: 140 μL TNE, 25 μL [125I]-HEAT diluted in TNE (50,000 cpm; final concentration 50 pM), 10 μL test compound diluted in DMSO (final concentration 1 pM-10 μM), […] COS cell membrane preparation expressing one of the three α1-AR subtypes (0.05-0.2 mg membrane protein). The plate was incubated for 1 hour at room temperature and the reaction mixtures were filtered through a Packard GF/C Unifilter filter plate. The filter plate was dried for 1 hour in a vacuum oven. Scintillation fluid ([…]) was added to each well, and the filter plate was counted in a Packard Topcount scintillation counter. Data was analyzed using GraphPad Prism software.
(§6) Tables A-J list the IC50 values expressed in nanomolar concentration for select compounds of the invention in all receptor subtypes.

The next assay deals with T3, α1a-AR (Homo sapiens, UniProt P35348).
T3 construct: expressed in transfected cells; host or cells: COS cells (pcDNA3 vector, DEAE-dextran transient transfection); membrane preparation
T3 sequence (P35348 1-466): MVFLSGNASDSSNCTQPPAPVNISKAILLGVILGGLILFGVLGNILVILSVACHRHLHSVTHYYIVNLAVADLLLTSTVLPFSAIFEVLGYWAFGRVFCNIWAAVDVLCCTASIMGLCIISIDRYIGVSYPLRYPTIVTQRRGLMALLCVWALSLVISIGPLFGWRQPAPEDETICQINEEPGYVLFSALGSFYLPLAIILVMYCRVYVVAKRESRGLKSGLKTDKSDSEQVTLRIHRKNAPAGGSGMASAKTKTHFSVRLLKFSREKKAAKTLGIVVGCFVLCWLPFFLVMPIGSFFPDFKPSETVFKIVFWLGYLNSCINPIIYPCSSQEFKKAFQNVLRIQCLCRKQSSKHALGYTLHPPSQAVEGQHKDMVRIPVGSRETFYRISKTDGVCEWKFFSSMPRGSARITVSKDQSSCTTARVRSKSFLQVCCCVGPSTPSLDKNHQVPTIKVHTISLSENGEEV
Briefly: radioligand ([125I]-HEAT) receptor binding assay, COS cell membranes, α1a-AR.
Source text: as §1
The DNA sequences of the three cloned human α1-AR subtypes have been published. […] We used published DNA sequence information to design-primers for use in RT-PCR amplification of each subtype to obtain cloned cDNAs. Human poly A+ RNA was obtained from commercially available sources and included hippocampus and prostate samples, sources which have been cited in the literature. For the primary screen a radio ligand binding assay was used which employed membrane preparations from cells expressing the individual cloned receptor cDNAs.
as §3, §4
The ability of each compound to bind to each of the α1-AR subtypes was assessed in a receptor binding assay. […] The plate was incubated for 1 hour at room temperature and the reaction mixtures were filtered through a Packard GF/C Unifilter filter plate. The filter plate was dried for 1 hour in a vacuum oven. Scintillation fluid ([…]) was added to each well, and the filter plate was counted in a Packard Topcount scintillation counter. Data was analyzed using GraphPad Prism software.

The target of a further assay is T4, α1d-AR (Homo sapiens, UniProt P25100).
T4 construct: expressed in transfected cells; host or cells: COS cells (pcDNA3 vector, DEAE-dextran transient transfection); membrane preparation
T4 sequence (P25100 1-572): T1 sequence (P25100 1-572)
In words: radioligand ([125I]-HEAT) receptor binding assay, COS cell membranes, α1d-AR. The conditions noted are these: Tables A-J, [125I]-HEAT 50 pM.
Source text: as §1, §2, §3, §4, §5, §6

Setting [1] is: stated in the preparative example, read-out: activity in the α1b screen.
The mark [2] stands for this setting: stated in the preparative example, read-out: activity in the α1a screen.

For the compound `CC(C)Oc1ccccc1N1CCN(CC(=O)CC(=O)CN2CCCCC2=O)CC1` [compound 2], the IC50 was 6040 nM against α1c, over 10000 nM on α1b-AR (setting [1]) and 417 nM on α1a-AR (setting [2]).
For `CC(C)Oc1ccccc1N1CCN(CC(O)CC(=O)CN2CCCCC2=O)CC1` (stereo not drawn) [compound 35], the IC50 at α1c was 253 nM; on α1b-AR (setting [1]), over 10000 nM; at α1a-AR (setting [2]), 28 nM.
Consider `CC(C)Oc1ccccc1N1CCN(C/C=C/C(=O)CN2CCCCC2=O)CC1` [compound 36], for which the IC50 at α1d-AR was 215 nM; against α1c, 602 nM; at α1b-AR (Tables A-J, [125I]-HEAT 50 pM, COS membranes, read-out: α1b IC50), over 10000 nM; on α1b-AR (setting [1]), 5320 nM; at α1a-AR (Tables A-J, [125I]-HEAT 50 pM, COS membranes, read-out: α1a IC50) it was 6.3 nM; at α1a-AR (setting [2]), 18 nM.
In the case of `CC(C)Oc1ccccc1N1CCN(CC(O)CC(O)CN2CCCCC2=O)CC1` (stereo not drawn) [compound 37], the figures for the IC50 on α1c, on α1b-AR (setting [1]) and at α1a-AR (setting [2]) were 224 nM, over 10000 nM and 53 nM, respectively.
